What all share (assay): NCI anticancer screen, dose series, 48 h
Assay [1] concerns 786-0 renal.
Assay [2] relates to CCRF-CEM leukemia.
Assay [3] relates to OVCAR-8 ovarian.
The subject of assay [4] is SF-268 CNS.
Assay [5] has as its system NCI-H23 lung.
Assay [6] has as its system UO-31 renal.
In assay [7] the test system is SN12C renal.
In assay [8] the test system is IGROV1 ovarian.
Assay [9] concerns OVCAR-3 ovarian.

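Interpolation was linear, between the two tested concentrations surrounding the appropriate level; five concentrations were tested over 48 hours in 96-well plates. GI50: concentration for 50% inhibition of growth. TGI denotes the concentration required for complete inhibition of growth.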

Among the data in PubChem BioAssay (NCI) are TGI and GI50 values, retold here.

As to `C[C@@H]1OC(=O)N2CCCC(=C3SCCCS3)C12` (stereo not given in full), the TGI in [1], in assay [2], in assay [3], in assay [4], in assay [5] and in assay [6] was > 100 µM in each case. For the same compound, the TGI in [7], in [8] and in assay [9] was > 100 µM throughout.

For `Cc1cc2c(cc1Cl)SC1=NN(C)S(=O)N1S2(=O)=O` (stereo not given), the GI50 in [1] is > 100 µM; in assay [2], > 100 µM; in assay [3] it was > 100 µM; in [4], > 100 µM; in assay [5] it was > 100 µM; in assay [6] it was 65.9 µM. Moreover, the GI50 in assay [7], in assay [8] and in assay [9] was > 100 µM throughout. The TGI in [1], in assay [2], in assay [3], in [4], in assay [5] and in assay [6] was > 100 µM throughout. In addition, the TGI in assay [7], in assay [8] and in assay [9] was > 100 µM in each case.

As for `CC1CN1C(=O)NCCCCCCNC(=O)N1CC1C` (stereo not given), the TGI in assay [1] was > 100 µM; in [2] it was > 93 µM; in [3] it was > 100 µM; in assay [4], > 100 µM; in [5] it was > 100 µM; in [6] it was > 100 µM. Further, the TGI in [7], in assay [8] and in assay [9] was > 100 µM in each case.

For `O=C(O)COCC(=O)N(CCOCCN(Cc1ccccc1)C(=O)COCC(=O)O)Cc1ccccc1`, the TGI in [1], in assay [2], in assay [3], in assay [4], in assay [5] and in [7] was > 100 µM each time. In addition, the TGI in assay [8] and in assay [9] was > 100 µM in each case.

In the case of `COc1cc(Nc2nc3ccccc3nc2-c2cccs2)cc(OC)c1OC`, the TGI in [1] is > 100 µM; in assay [2], > 100 µM; in assay [3], > 10 µM; in assay [4] it was > 100 µM; in [5], > 100 µM; in assay [6] it was > 10 µM. Further, the TGI in assay [7] and in assay [9] was > 100 µM in each case.

Regarding `N#CSC1CCCCNC1=O` (stereo not given), the TGI amounted to 32.6 µM in [1]; 34.8 µM in assay [2]; 33.6 µM in [3]; 26.2 µM in assay [4]; 24.4 µM in assay [5]; 31.1 µM in assay [6]. The TGI in assay [7] is 30.8 µM; in assay [9] it was 29.5 µM.

With `COc1cc(C(=O)CBr)c(OC)cc1C`, the TGI in [1], in [2], in assay [3], in assay [4], in assay [5] and in assay [6] was > 100 µM in each case. Besides, the TGI in assay [7] and in assay [8] was > 100 µM in each case.

In the case of `CC(C)(CO)N1CCN(C(=S)Nc2ccccc2)CC1`, the TGI in [1], in [3], in assay [4], in [5], in [6] and in assay [7] was > 100 µM in each case. For the same compound, the TGI in assay [8] and in [9] was > 100 µM throughout.

On to `COC1(OC)CC2OC1C1N=NN(C(=O)OC(C)(C)C)C21` (stereo not given), for which the TGI in [1], in assay [2], in [4], in assay [5], in assay [6] and in [7] was > 100 µM in each case. In addition, the TGI in assay [8] and in assay [9] was > 100 µM throughout.

With `CCOC(=S)SSSC(=S)OCC`, the TGI is 28.5 µM in assay [1]; > 100 µM in assay [2]; 32.3 µM in assay [3]; > 100 µM in assay [4]; > 100 µM in assay [5]; 70 µM in assay [7]. Also, in assay [9], the TGI is > 100 µM.

Consider `O=C(NC12CC3CC(CC(F)(C3)C1)C2)c1ccccc1`, for which the TGI in assay [1], in assay [2], in [3], in assay [5], in assay [6] and in assay [8] was > 100 µM throughout. The TGI in [9] is > 100 µM.

As for `CCN(CC)C(c1ccc(N(C)C)cc1)C(c1ccc(N(C)C)cc1)N(CC)CC` (stereo not given), the TGI in [1], in assay [2], in [3], in assay [4], in [5] and in assay [7] was > 73 µM in each case. In addition, the TGI in assay [8] and in assay [9] was > 73 µM each time.

On to `O=C(Nc1ccc(-c2nc(N3CCOCC3)c3cccn3n2)cc1)Nc1cccnc1`, for which the GI50 is 0.178 µM in assay [1]; 0.0547 µM in [2]; 0.0491 µM in [3]; 0.248 µM in assay [4]; 0.269 µM in assay [5]; 0.0619 µM in assay [6]. Besides, the GI50 in [8] was 0.0767 µM; in assay [9] it was 0.152 µM. In addition, the TGI in [1] is 1.98 µM; in assay [2], > 100 µM; in assay [3], > 100 µM; in assay [4], 87.6 µM; in assay [5] it was > 100 µM; in assay [6] it was 0.546 µM. In addition, the TGI in assay [8] came out at 0.464 µM; in assay [9] it was 1.06 µM.

In the case of `C/C(CC(=O)Nc1cc(C)ccc1C)=N\NC(=O)c1ccncc1`, the TGI in assay [1], in [2], in assay [3], in [4], in assay [5] and in assay [6] was > 100 µM in each case. Moreover, the TGI in assay [8] and in assay [9] was > 100 µM in each case.
